Measured values: patent publication US12428428B2, “Tricyclic tetrahydroisoquinoline derivative, preparation method therefor and application thereof in medicine” (JIANGSU HENGRUI MEDICINE CO., LTD., priority 2020, dated 2025)

How the values were obtained:
Format in all cases: cell-based
[1] = molecular target: ER (estrogen receptor) (Homo sapiens (Human), UniProt P03372); assay: Inhibition of binding of E to ER (MCF-7/ERE-luciferase reporter cells); conditions: MCF-7/ERE-luciferase cells, 0.1 nM estradiol, 24 h
Description: The compounds of the present disclosure can inhibit the binding of E (estrogen) to ER (estrogen receptor), thereby blocking the binding of the complex of E and ER to ERE (estrogen response element), and consequently the expression of downstream luciferase proteins. The inhibitory effects of the compounds of the present disclosure on the binding of E to ER was tested by using the following method.
An ERE was cloned upstream of the luciferase gene, and MCF-7/ERE-luciferase monoclonal cells were selected by transfection of MCF-7 (TCHu74, National Collection of Authenticated Cell Cultures). The MCF-7/ERE-luciferase cells were seeded into a 96-well plate with an MEM (hyclone, SH30024.01B) medium containing 10% charcoal stripped FBS (Moregate, FBSF), 1% sodium pyruvate (sigma, S8636), 1% non-essential amino acids (sigma, M7145) and 500 μg/mL G418 at a density of 30,000 cells/well and cultured at 37° C. with 5% CO2. 20 mM stock solutions of the drugs are prepared, serially diluted 10-fold with 100% DMSO, and then diluted 20-fold with the medium. After the cells were cultured for 24 h, the medium was removed. 0.1 nM estradiol (sigma, E2758) and 10 μL of a medium-diluted drug were added to each well, and DMSO was added to the control group. The mixtures were well mixed by gentle shaking. The cells were cultured in an incubator at 37° C. with 5% CO2 for 24 h, and then the cell culture liquid was removed, followed by the addition of 50 μL of a luciferase substrate (Promega, E6110) to each well. The plate was let stand at room temperature in the dark for 10-15 min, and the chemiluminescence signal values were determined.
The inhibitory effects of the compounds of the present disclosure on the binding of E to ER were tested through the above experiment. The chemiluminescence signal value was plotted against the compound concentration (in log form) using Graphpad Prism, and the IC50 values of the compounds were obtained.

[2] = test system: MCF-7 cells; assay: Inhibition of proliferation of MCF-7 cells (ATP method, Cell Titer-Glo); conditions: Homo sapiens, MCF7; MCF-7 cells, 72 h
Description: This experiment was intended to test the inhibitory effects of the compounds disclosed herein on the proliferation of MCF-7 Cells by using the ATP method, and to evaluate the in vitro activity of the compounds according to the IC50 values.
MCF-7 cells (TCHu74, National Collection of Authenticated Cell Cultures) were seeded into a 96-well plate with an MEM (hyclone, SH30024.01B) medium containing 10% FBS (Gibco, 10099-141), 1% sodium pyruvate (sigma, 58636) and 1% non-essential amino acid (sigma, M7145) at a density of 4,000 cells/well and cultured at 37° C. with 5% CO2. 20 mM stock solutions of the compounds are prepared, serially diluted with 100% DMSO to a final concentration of 1000×, and then diluted 20-fold with a medium containing 2% FBS. After the cells were cultured for 24 h, the medium was removed. 90 μL of the medium containing 2% FBS and 10 μL of a drug were added to each well, and 10 μL of DMSO was added to the control group. The mixtures were well mixed by gentle shaking. The blank group contained only 100 μL of the medium containing 2% FBS. The cells were cultured in an incubator at 37° C. with 5% CO2 for 72 h, and then 50 μL of mixed Cell Titer-Glo (Promega, G7571) was added to each well. The mixtures were well mixed by shaking and let stand at room temperature for 10 min, and the chemiluminescence signal values were determined.
The chemiluminescence signal value was plotted against the compound concentration (in log form) using Graphpad Prism, and the IC50 values of the compounds were obtained.

[3] = molecular target: ERα (Homo sapiens (Human), UniProt P03372); assay: Degradation of ERα in MCF-7 cells (ELISA); design: Dmax: dose or concentration left out as unconfirmed; conditions: for Dmax at 3 µM: MCF7, read-out: Emax degradation (%); for DC50: MCF-7 cells, 16 to 18 h, read-out: EC50 (nM), degradation of ERα
Description: ERα-positive breast cancer cell line MCF-7 cells were cultured in a DMEM/F12 medium (HyClone, SH30023.01) containing 10% fetal bovine serum (Corning, 35-010-CV). […] The following day the compounds were serially diluted with DMSO and further diluted with the phenol red-free DMEM/F12 medium containing 5% charcoal-stripped fetal bovine serum. 20 μL of a diluted compound was added to each well of the 48-well plate at final concentrations of 3000, 300, 30, 3, 0.3, 0.03 and 0.003 nM. The 48-well plate was placed in the incubator for 16 to 18 h. A 96-well plate was coated with the capture antibody from the human ERα/NR3A1 total protein assay kit (R&D, DYC5715-5). […] The plate was placed in an incubator at 26° C. overnight. On day 3, the antibody-coated 96-well plate was washed once with PBS, and 200 μL of PBS containing 1% BSA was added to each well. The plate was incubated in an incubator at 37° C. for 1.5 h to be blocked. The cell culture medium supernatant was discarded. The cells were washed once with PBS, and 60 μL of a cell lysis buffer was added to each well. […] The cells were lysed on ice for 15 min, and 300 μL of PBS containing 1 mM EDTA and 0.5% TritonX-100 was added to each well to dilute the urea to 1 M. The blocking buffer in the blocked 96-well plate was discarded, and 100 μL of diluted cell lysis buffer was added to each well. The plate was incubated in an incubator at 37° C. for 2 h and washed 5 times with PBS. A biotinylated assay antibody was diluted to 0.4 μg/mL with PBS containing 1% BSA, and then 100 μL of the assay antibody was added to each well. The plate was incubated in an incubator at 37° C. for 1 h. The plate was then washed five more times, and 100 μL of avidin-HRP diluted 200-fold with PBS containing 1% BSA was added to each well. The plate was incubated at 37° C. for 30 min. The plate was washed five more times, and 100 μL of TMB substrate was added to each well. The plate was incubated at room temperature until blue color appeared, and 100 μL of stop solution was added to each well. OD450 signal values were read using a PHERAstar multi-mode microplate reader. The IC50 values for the inhibitory activity of the compounds were calculated using Graphpad Prism software.

Sequence of ER (estrogen receptor) (P03372 whole entry): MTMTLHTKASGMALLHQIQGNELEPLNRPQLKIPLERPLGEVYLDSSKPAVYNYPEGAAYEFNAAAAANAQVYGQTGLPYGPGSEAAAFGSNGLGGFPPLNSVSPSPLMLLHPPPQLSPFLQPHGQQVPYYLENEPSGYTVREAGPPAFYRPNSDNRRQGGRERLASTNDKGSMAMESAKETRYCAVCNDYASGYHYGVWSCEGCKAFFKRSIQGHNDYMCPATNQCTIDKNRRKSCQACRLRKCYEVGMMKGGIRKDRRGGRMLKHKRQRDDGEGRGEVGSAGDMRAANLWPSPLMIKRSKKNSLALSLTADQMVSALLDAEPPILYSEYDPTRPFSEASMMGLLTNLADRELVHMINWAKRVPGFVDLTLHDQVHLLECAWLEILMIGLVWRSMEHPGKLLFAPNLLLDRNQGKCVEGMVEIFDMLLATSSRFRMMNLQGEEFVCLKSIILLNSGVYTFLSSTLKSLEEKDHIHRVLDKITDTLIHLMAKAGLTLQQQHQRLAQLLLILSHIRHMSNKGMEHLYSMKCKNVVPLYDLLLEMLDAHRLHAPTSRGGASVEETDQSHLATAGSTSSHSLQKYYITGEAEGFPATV
Sequence of ERα (P03372 whole entry): as above

IC50 [1] | IC50 [2] | Dmax at 3 µM [3] | DC50 [3] | Compound | Dmax ([3]; MCF7, read-out: Emax degradation (%))
0.14 nM | 0.31 nM | 94% | 0.32 nM | C[C@@H]1Cc2cc3c(cc2[C@@H](c2ccc(N[C@H]4CCN(CCCF)C4)cc2)N1CC(F)(F)F)OCO3 [Example 1, (S)-1-(3-fluoropropyl)-N-(4-((5R,7R)-7-methyl-6-(2,2,2-trifluoroethyl)-5,6,7,8-tetrahydro-[1,3]dioxolo[4,5-g]isoquinolin-5-yl)phenyl)pyrrolidin-3-amine] | 
0.1 nM | 0.17 nM | 104% | 0.24 nM | C[C@@H]1Cc2cc3c(cc2[C@@H](c2c(F)cc(N[C@H]4CCN(CCCF)C4)cc2F)N1CC(F)(F)F)OCO3 [Example 2, (S)—N-(3,5-difluoro-4-((5S,7R)-7-methyl-6-(2,2,2-trifluoroethyl)-5,6,7,8-tetrahydro-[1,3]dioxolo[4,5-g]isoquinolin-5-yl)phenyl)-1-(3-fluoropropyl)pyrrolidin-3-amine] | 
0.44 nM | 0.15 nM | 129% | 0.19 nM | C[C@@H]1Cc2cc3c(cc2[C@@H](c2ccc(N[C@H]4CCN(CCCF)C4)cc2)N1CC(F)(F)CO)OCO3 [Example 3, 2,2-Difluoro-3-((5R,7R)-5-(4-(((S)-1-(3-fluoropropyl)pyrrolidin-3-yl)amino)phenyl)-7-methyl-7,8-dihydro-[1,3]dioxolo[4,5-g]isoquinolin-6(5H)-yl)propan-1-ol] | 
0.37 nM | 0.28 nM | 115% | 0.21 nM | C[C@@H]1Cc2cc3c(cc2[C@@H](c2ccc(N[C@H]4CCN(CCCF)C4)cn2)N1CC(F)(F)CO)OCO3 [Example 4, 2,2-Difluoro-3-((5S,7R)-5-(5-(((S)-1-(3-fluoropropyl)pyrrolidin-3-yl)amino)pyridin-2-yl)-7-methyl-7,8-dihydro-[1,3]dioxolo[4,5-g]isoquinolin-6(5H)-yl)propan-1-ol] | 
0.05 nM | 0.03 nM | 108% | 0.04 nM | C[C@@H]1Cc2cc3c(cc2[C@@H](c2c(F)cc(N[C@H]4CCN(CCCF)C4)cc2F)N1CC(F)(F)CO)OCO3 [Example 5, 3-((5S,7R)-5-(2,6-difluoro-4-(((S)-1-(3-fluoropropyl)pyrrolidin-3-yl)amino)phenyl)-7-methyl-7,8-dihydro-[1,3]dioxolo[4,5-g]isoquinolin-6(5H)-yl)-2,2-difluoro-1-propanol] | 
0.27 nM | 0.34 nM | 104% | 0.17 nM | C[C@@H]1Cc2cc3c(cc2[C@@H](c2ccc(N[C@H]4CCN(CCCF)C4)cn2)N1CC(F)(F)F)OCO3 [Example 6, N—((S)-1-(3-fluoropropyl)pyrrolidin-3-yl)-6-((5S,7R)-7-methyl-6-(2,2,2-trifluoroethyl)-5,6,7,8-tetrahydro-[1,3]dioxolo[4,5-g]isoquinolin-5-yl)pyridin-3-amine] | 
0.46 nM | 0.35 nM | 107% | 1.04 nM | C[C@@H]1Cc2cc3c(cc2[C@@H](c2ncc(N[C@H]4CCN(CCCF)C4)cc2F)N1CC(F)(F)F)OCO3 [Example 9, 5-Fluoro-N—((S)-1-(3-fluoropropyl)pyrrolidin-3-yl)-6-((5S,7R)-7-methyl-6-(2,2,2-trifluoroethyl)-5,6,7,8-tetrahydro-[1,3]dioxolo[4,5-g]isoquinolin-5-yl)pyridin-3-amine] | 
0.35 nM | 0.23 nM | 91% | 0.45 nM | C[C@@H]1Cc2cc3c(cc2[C@@H](c2ncc(N[C@H]4CCN(CCCF)C4)cc2F)N1CC(F)(F)CO)OCO3 [Example 11, 2,2-Difluoro-3-((5S,7R)-5-(3-fluoro-5-(((S)-1-(3-fluoropropyl)pyrrolidin-3-yl)amino)pyridin-2-yl)-7-methyl-7,8-dihydro-[1,3]dioxolo[4,5-g]isoquinolin-6(5H)-yl)propan-1-ol] | 
1.13 nM | 1.12 nM | 101% | 0.15 nM | [2H]C1([2H])Oc2cc3c(cc2O1)[C@@H](c1ccc(N[C@H]2CCN(CCCF)C2)cn1)N(CC(F)(F)CO)[C@H](C)C3 [Example 12, 2,2-Difluoro-3-((5S,7R)-5-(5-(((S)-1-(3-fluoropropyl)pyrrolidin-3-yl)amino)pyridin-2-yl)-7-methyl-7,8-dihydro-[1,3]dioxolo[4,5-g]isoquinolin-6(5H)-yl-2,2-d2)propan-1-ol] | 
0.5 nM | 0.36 nM | 92% | 0.5 nM | C[C@@H]1Cc2cc3c(cc2[C@@H](c2ccc(NC4CN(CCCF)C4)cn2)N1CC(F)(F)CO)OCO3 [Example 14, 2,2-Difluoro-3-((5S,7R)-5-(5-((1-(3-fluoropropyl)azetidin-3-yl)amino)pyridin-2-yl)-7-methyl-7,8-dihydro-[1,3]dioxolo[4,5-g]isoquinolin-6(5H)-yl)propan-1-ol] | 
0.19 nM | 0.3 nM | 95% | 0.15 nM | C[C@@H]1Cc2cc3c(cc2[C@@H](c2c(F)cc(O[C@H]4CCN(CCCF)C4)cc2F)N1CC(F)(F)F)OCO3 [Example 15, (5S,7R)-5-(2,6-difluoro-4-(((S)-1-(3-fluoropropyl)pyrrolidin-3-yl)oxy)phenyl)-7-methyl-6-(2,2,2-trifluoroethyl)-5,6,7,8-tetrahydro-[1,3]dioxolo[4,5-g]isoquinoline] | 

Compound | IC50 [1] | IC50 [2] | Dmax at 3 µM [3] | DC50 [3] | Dmax ([3]; MCF7, read-out: Emax degradation (%))
[2H]C1([2H])Oc2cc3c(cc2O1)[C@@H](c1ccc(NC2CN(CCCF)C2)cn1)N(CC(F)(F)CO)[C@H](C)C3 [Example 13, 2,2-Difluoro-3-((5S,7R)-5-(5-((1-(3-fluoropropyl)azetidin-3-yl)amino)pyridin-2-yl)-7-methyl-7,8-dihydro-[1,3]dioxolo[4,5-g]isoquinolin-6(5H)-yl-2,2-d2)propan-1-ol] |  | 0.29 nM |  |  | 107%
